Read-outs that look alike come from different tables or passages of the source.
Assays:
[1] = acute toxicity tests in mice (Test 2); settings: mouse, in vivo; male mice, oral, in olive oil; mortality after 72 hours, area method
Method: In the acute toxicity tests, male mice (weight: 22 to 25 g) were used in groups of 10 each.
Each active ingredient was dissolved in olive oil and the solution was orally administrated in a volume corresponding to the body weight.
LD50 was calculated by the area method from the mortal percent after 72 hours from the administration.

[2] = test system: rats with dietary hyperlipidemia; assay: The antihyperlipidemic activity in rats with dietary hyperlipidemia (Test 1); assay type: in vivo, Wister type male rats; settings: Rattus norvegicus, cholesterol diet, 100 mg/kg oral once daily for 4 days, 24 hours after administration
Method: The antihyperlipidemic activity in rats with dietary hyperlipidemia.
In the tests, Wister type male rats (weight: 140 g) were used in groups of 6 each.
A feed containing 2% of cholesterol, 1% of sodium cholate and 5% of coconut oil was given for 4 days to cause hyperlipidemia.
Each active ingredient was suspended in a 1% aqueous solution of Tween 80 (® polyoxyethylene sorbitane monoalkylate) and the suspension was orally administered in a dose of 100 mg/kg once daily for 4 days starting with the supply of the cholesterol supplemented diet.
After 24 hours from the administration, blood was sampled and the concentration of total cholesterols in blood-plasma was measured by the method described in Clinical chemistry Vol. 22 page 393 (1968) and the concentration of triglyceride (neutral fat) was measured by Fletcher method (Clinica Chimica Acta) Vol. 10 page 451 (1964).
As the active ingredients, the compounds of the invention shown in Table and ethyl-α-(p-chlorophenoxy)-isobutylate having the formula [drawing 25] were used.

[3] = total cholesterol in blood-plasma, read-out: Antihypertipidemic activity (%) Cholesterol
[4] = triglyceride (neutral fat), Fletcher method, read-out: Antihypertipidemic activity (%) Triglyceride

| Structure (SMILES) | LD50 at 72 h [1] | inhibition in vivo at 100 mg/kg [2, 3] | inhibition in vivo at 100 mg/kg [2, 4] |
| --- | --- | --- | --- |
| CCOC(=O)C(Oc1cccc(C(F)(F)F)c1)C1CCCCC1 (stereo not drawn) [Compound 1] | 2500 mg/kg | 12.1% | 49.3% |
| CCOC(=O)C(Oc1cccnc1)C1CCCCC1 (stereo not drawn) [Compound 2] | 2500 mg/kg | 0% | 45% |
| CCOC(=O)C(Oc1ccc(Cl)cc1)C1CCCCC1 (stereo not drawn) [Compound 3] | > 3000 mg/kg | 43.3% | 31.5% |
| CCOC(=O)C(Oc1c(C)cccc1C)C1CCCCC1 (stereo not drawn) [Compound 4] | > 3000 mg/kg | 38.5% | 0% |
| CCOC(=O)C(Oc1ccc(OC)cc1)C1CCCCC1 (stereo not drawn) [Compound 5] | > 3000 mg/kg | 39% | 8.9% |
| CCOC(=O)C(Oc1ccc(-c2ccccc2)cc1)C1CCCCC1 (stereo not drawn) [Compound 6, Ethyl α-(p-phenylphenoxy)α-cyclohexylacetate] | > 3000 mg/kg | 52.3% | 44% |
| CCOC(=O)C(Oc1ccc(C2CCCCC2)cc1)C1CCCCC1 (stereo not drawn) [Compound 7, Ethyl α-(p-cyclohexylphenoxy)α-cyclohexylacetate] | > 3000 mg/kg | 42.6% | 51.6% |
| CCOC(=O)C(Oc1ccc(C(C)CC)cc1)C1CCCCC1 (stereo not drawn) [Compound 8] | > 3000 mg/kg | 36.7% | 17.1% |
| CCOC(=O)C(Oc1ccc(C(C)(C)c2ccccc2)cc1)C1CCCCC1 (stereo not drawn) [Compound 9] | > 3000 mg/kg | 40.3% | 28.1% |
| CCOC(=O)C(Oc1ccc2c(c1)CCCC2)C1CCCCC1 (stereo not drawn) [Compound 10, Ethyl α-(5,6,7,8-tetrahydro-2-naphthoxy)-α-cyclohexylacetate] | 2500 mg/kg | 52.1% | 44.4% |
| CCOC(=O)C(Oc1ccc(C(C)=O)cc1)C1CCCCC1 (stereo not drawn) [Compound 11] | > 3000 mg/kg | 31.8% | 30.9% |
| CCOC(=O)C(Oc1cccc(C(C)=O)c1)C1CCCCC1 (stereo not drawn) [Compound 12] | > 3000 mg/kg | 14.3% | 11.5% |
| CCOC(=O)C(Oc1cccc(C)c1)C1CCCCC1 (stereo not drawn) [Compound 13] | > 3000 mg/kg | 7.9% | 59.7% |
| CCOC(=O)C(Oc1ccc(CC)cc1)C1CCCCC1 (stereo not drawn) [Compound 14, Ethyl α-(p-ethylphenoxy)α-cyclohexylacetate] | > 3000 mg/kg | 42.6% | 64.8% |
| CCOC(=O)C(Oc1ccc(Cl)c2ccccc12)C1CCCCC1 (stereo not drawn) [Compound 15] | 2500 mg/kg | 0% | 53% |
| CCOC(=O)C(Oc1ccc(Oc2ccccc2)cc1)C1CCCCC1 (stereo not drawn) [Compound 16, ethyl α-(p-phenoxyphenoxy)α-cyclohexylacetate] | > 3000 mg/kg | 40.8% | 38.7% |
| CCOC(=O)C(Oc1ccc(Oc2ccc(Cl)cc2)cc1)C1CCCCC1 (stereo not drawn) [Compound 17] | > 3000 mg/kg | 45.3% | 46.5% |
| CCOC(=O)C(Oc1ccc(-c2ccc(Cl)cc2)cc1)C1CCCCC1 (stereo not drawn) [Compound 18] | > 3000 mg/kg | 43.7% | 40.5% |
| O=C(O)C(Oc1ccc(C2CCCCC2)cc1)C1CCCCC1 (stereo not drawn) [Compound 19, α-(p-cyclohexylphenoxy)α-cyclohexylacetic acid] | > 3000 mg/kg | 35.8% | 32.4% |

— patent publication US4278678A, “Substituted oxy-cyclohexylacetic acid derivatives” (Kaken Chemical Co., Ltd., priority 1978, dated 1981)
